Source: US20190137505A1 (THE ARIZONA BOARD OF REGENTS ON BEHALF OF THE UNIVERSITY OF …, priority 2015, published 2019)
Entries after “also recorded” stand apart in the source; their conditions may differ.

Molecular target: T1, plasminogen (Homo sapiens, UniProt P00747)
T1 construct: Glu-Pg, uPA, tPA, fibrinogen, and chromogenic substrate for Pn were purchased from Molecular Innovations (Novi, Mich.); purchased Molecular Innovations (Novi, Mich.)
Assay: LC-MS/MS identification of sites of MG adduction on plasminogen in vitro (Tables 1 and 12)
Settings: 500 μM MG, 24 hr
Protocol: 10 μg Pg was incubated with MG (50-500 μM) in tris-buffered saline (TBS) for 24 hours at 37° C. Following modification, sample volumes were increased to 150 μL and placed in 5 kDa spin filters to reduce volume and remove excess MG from solution.
MG-modified (500 μM) and unmodified Pg control (same incubation conditions without MG) were added to 250 μL amount of rehydration buffer (6M urea, 2M thiourea, 2% CHAPS, 100 mM DTT, 0.5% 3-10 ampholytes) and 5 μL of 3-10 ampholytes (Bio-Rad). Sample rehydrated with a 13 cm 4-7 pH isoelectric focusing strip (GE Healthcare) overnight. Following rehydration, strips were placed in a Bio-Rad PROTEAN IEF Cell focusing instrument. Strips were first focused for 1 hour at 500 V, and then run at a maximum of 8,000V until the strips have reached a final total of 45,000 V/hrs at which point gels are held at 500V until removed. Focused strips were removed, reduced with DTT, cysteines carbamidomethylated with iodoacetamide, and run on a 4-20% gradient Criterion gel for 55 minutes at 200V. Gels were stained for stained according to manufacturer instructions with Imperial Blue Protein (ThermoScientific, Rockford, Ill.) and destained immediately with water. Gel bands were excised and trypsin digested.
Coomassie stained gel-bands were excised and washed in ddH2O for 15 min. H2O was removed and bands were incubated in 50/50 acetonitrile (ACN):ddH2O for 15 min. ACN:ddH2O was removed and bands were incubated with ACN for 5 min. ACN was removed and gels were incubated with 100 mM ammonium bicarbonate (AMBIC). An equal volume of ACN was added to make 1:1 solution and was incubated for 15 min. The ACN/AMBIC solution was removed and remaining gel bands were dried by speed-vacuum. 10 mM dithiothreitol (DTT) was added to each band and incubated at 56° C. for 45 min. DTT was removed and sample brought to room temperature (RT). Iodoacetamide (55 mM) was added to each sample and incubated at RT for 30 min in dark. Iodoacetamide was removed and 100 mM AMBIC was added and bands were incubated for 5 min. An equal volume of ACN was added to make a 1:1 solution and incubated for 15 min. The ACN/AMBIC solution was removed and bands were dried by speed-vacuum. Bands were digested with trypsin (400 ng/band) in 50 mM AMBIC and incubated on ice for 45 min. Tryptic solution was removed and 50 mM AMBIC was added to each band and incubated overnight at 37° C. to complete digestion. Digests were acidified using 10% trifluoroacetic acid (TFA). Supernatant was saved. Band was covered with TFA:ACN (0.1%:60%) and sonicated at 20° C. water bath for 30 min. Supernatant was combined with previous fraction. Sampled were speed vacuumed to a final volume of 10 μL prior to LC-MS/MS analysis on an LTQ Orbitrap Velos mass spectrometer as described below.
LC-MS/MS analysis of in-gel trypsin digested-proteins (Shevchenko et al., 1996) was carried out using a LTQ Orbitrap Velos mass spectrometer (Thermo Fisher Scientific, San Jose, Calif.) equipped with an Advion nanomate ESI source (Advion, Ithaca, N.Y.), following ZipTip (Millipore, Billerica, Mass.) C18 sample clean-up according to the manufacturer's instructions. Peptides were eluted from a C18 precolumn (100-μm id×2 cm, Thermo Fisher Scientific) onto an analytical column (75-μm ID×10 cm, C18, Thermo Fisher Scientific) using a 5-20% gradient of solvent B (acetonitrile, 0.1% formic acid) over 65 minutes, followed by a 20-35% gradient of solvent B over 25 minutes, all at a flow rate of 400 nl/min. Solvent A consisted of water and 0.1% formic acid. Data dependent scanning was performed by the Xcalibur v 2.1.0 software (Andon et al., 2002) using a survey mass scan at 60,000 resolution in the Orbitrap analyzer scanning m/z 350-1600, followed by collision-induced dissociation (CID) tandem mass spectrometry (MS/MS) of the fourteen most intense ions in the linear ion trap analyzer. […]

T1 sequence (P00747 20-810 limits assumed): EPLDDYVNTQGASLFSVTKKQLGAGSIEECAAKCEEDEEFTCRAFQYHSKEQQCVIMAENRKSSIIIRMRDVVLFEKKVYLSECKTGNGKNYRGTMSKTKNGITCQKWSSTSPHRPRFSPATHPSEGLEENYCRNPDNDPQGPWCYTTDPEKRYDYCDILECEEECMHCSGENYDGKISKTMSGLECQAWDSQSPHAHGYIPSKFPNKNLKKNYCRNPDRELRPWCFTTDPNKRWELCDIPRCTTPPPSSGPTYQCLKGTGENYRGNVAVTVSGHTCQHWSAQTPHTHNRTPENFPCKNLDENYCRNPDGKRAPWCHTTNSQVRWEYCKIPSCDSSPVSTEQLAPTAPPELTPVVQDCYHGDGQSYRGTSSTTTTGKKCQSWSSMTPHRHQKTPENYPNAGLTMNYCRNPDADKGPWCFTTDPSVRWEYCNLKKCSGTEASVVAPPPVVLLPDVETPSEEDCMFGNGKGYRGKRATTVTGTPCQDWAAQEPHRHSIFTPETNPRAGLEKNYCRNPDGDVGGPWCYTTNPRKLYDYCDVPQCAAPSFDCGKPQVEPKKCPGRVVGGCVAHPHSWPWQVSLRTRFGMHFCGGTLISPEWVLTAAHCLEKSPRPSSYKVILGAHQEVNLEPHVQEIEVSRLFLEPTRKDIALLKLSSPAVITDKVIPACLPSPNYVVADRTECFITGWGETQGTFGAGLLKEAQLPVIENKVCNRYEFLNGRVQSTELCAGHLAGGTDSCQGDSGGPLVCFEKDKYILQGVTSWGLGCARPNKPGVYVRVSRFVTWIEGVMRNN

CC(=O)C=O [MG, Methylglyoxal] was tested, and the Modifications (plasminogen site 43) was “MG-HI”, the Modifications (plasminogen site 61) was “MG-DH; also recorded: MG-HI” and the Modifications (plasminogen site 68) was “MG-DH; also recorded: MG-HI”. The Modifications (plasminogen site 70) was “MG-DH; also recorded: MG-HI”, the Modifications (plasminogen site 115) was “MG-HI” and the Modifications (plasminogen site 117) was “MG-HI; also recorded: MG-DH”. The Modifications (plasminogen site 134) was “MG-DH”, the Modifications (plasminogen site 220) was “MG-DH; also recorded: MG-HI” and the Modifications (plasminogen site 223) was “MG-HI”. The Modifications (plasminogen site 234) was “MG-DH”, the Modifications (plasminogen site 242) was “MG-DH; also recorded: MG-HI” and the Modifications (plasminogen site 265) was “MG-DH; also recorded: MG-HI”. For the same compound, the Modifications (plasminogen site 290) was “MG-HI”, the Modifications (plasminogen site 312) was “MG-DH; also recorded: MG-HI” and the Modifications (plasminogen site 324) was “MG-HI; also recorded: MG-DH”. For the same compound, the Modifications (plasminogen site 389) was “MG-HI; also recorded: MG-DH”, the Modifications (plasminogen site 474) was “MG-HI; also recorded: MG-DH” and the Modifications (plasminogen site 493) was “MG-HI; also recorded: MG-DH”. The Modifications (plasminogen site 504) was “MG-HI; also recorded: MG-DH”, the Modifications (plasminogen site 530) was “MG-HI; also recorded: MG-DH” and the Modifications (plasminogen site 561) was “MG-HI; also recorded: MG-DH”. For the same compound, the Modifications (plasminogen site 582) was “MG-HI; also recorded: MG-DH”, the Modifications (plasminogen site 644) was “MG-HI” and the Modifications (plasminogen site 712) was “MG-DH; also recorded: MG-HI”. The Modifications (plasminogen site 767) was “MG-HI; also recorded: MG-DH”, the Modifications (plasminogen site 779) was “MG-HI; also recorded: MG-DH” and the Modifications (plasminogen site 789) was “MG-HI; also recorded: MG-DH”. The Modifications (plasminogen sites 115/117 on one peptide, two adducts) was “MG-HI;; also recorded: MG-HI; also recorded: MG-DH;; also recorded: MG-DH”, the Modifications (plasminogen sites 220/223 on one peptide, two adducts) was “MG-HI;; also recorded: MG-DH; also recorded: MG-HI; also recorded: MG-DH;” and the Modifications (plasminogen sites 312/324 on one peptide, two adducts) was “MG-DH;; also recorded: MG-HI; also recorded: MG-DH; also recorded: MG-HI;”. The Modifications (plasminogen sites 474/493 on one peptide, two adducts) was “MG-DH;; also recorded: MG-HI; also recorded: MG-HI;”, the Modifications (plasminogen sites 489/504 on one peptide, two adducts) was “MG-HI;; also recorded: MG-DH” and the Modifications (plasminogen sites 779/789 on one peptide, two adducts) was “MG-HI;; also recorded: MG-DH; also recorded: MG-HI; also recorded: MG-DH;”. For the same compound, the “Spectra Observed” value (site 43, MG-HI, C(+57)EEDEEFTC(+57)RAFQYHSK) was 1, the “Spectra Observed” value (site 61, MG-DH, EQQC(+57)VIMAENRK) was 3 and the “Spectra Observed” value (site 61, MG-HI, EQQC(+57)VIMAENRK) was 4. The “Spectra Observed” value (site 68, MG-DH, SSIIIRMR) was 2, the “Spectra Observed” value (site 68, MG-HI, KSSIIIRMR) was 1 and the “Spectra Observed” value (site 70, MG-DH, M(+16)RDVVLFEK) was 2. The “Spectra Observed” value (site 70, MG-DH, MRDVVLFEK) was 7, the “Spectra Observed” value (site 70, MG-DH, MRDVVLFEKK) was 2 and the “Spectra Observed” value (site 70, MG-HI, M(+16)RDVVLFEK) was 4. The “Spectra Observed” value (site 70, MG-HI, MRDVVLFEK) was 4, the “Spectra Observed” value (site 70, MG-HI, MRDVVLFEKK) was 4 and the “Spectra Observed” value (site 115, MG-HI, WSST SPHRPR) was 4. The “Spectra Observed” value (site 117, MG-DH, WSSTSPHRPRFSPATHPSEGLEENYC(+57)R) was 9, the “Spectra Observed” value (site 117, MG-HI, WSSTSPHRPRFSPATHPSEGLEENYC(+57)R) was 9 and the “Spectra Observed” value (site 134, MG-DH, FSPATHPSEGLEENYCRNPDNDPQGPWC(+57)YTTDPEKR) was 1. For the same compound, the “Spectra Observed” value (site 220, MG-DH, NPDRELRPWC(+57)FTTDPNK) was 1, the “Spectra Observed” value (site 220, MG-DH, NPDRELRPWC(+57)FTTDPNKR) was 6 and the “Spectra Observed” value (site 220, MG-HI, NPDRELRPWC(+57)FTTDPNK) was 5. For the same compound, the “Spectra Observed” value (site 223, MG-HI, ELRPWC(+57)FTTDPNKR) was 4, the “Spectra Observed” value (site 223, MG-HI, NPDRELRPWC(+57)FTTDPNKR) was 11 and the “Spectra Observed” value (site 234, MG-DH, RWELC(+57)DIPR0) was 2. The “Spectra Observed” value (site 242, MG-DH, WELC(+57)DIPRC(+57)TTPPPSSGPTYQC(+57)LK) was 6, the “Spectra Observed” value (site 242, MG-HI, WELC(+57)DIPRC(+57)TTPPPSSGPTYQC(+57)LK) was 3 and the “Spectra Observed” value (site 265, MG-DH, GTGENYRGNVAVTVSGHTC(+57)QHWSAQTPHTHNR) was 7. The “Spectra Observed” value (site 265, MG-HI, GTGENYRGNVAVTVSGHTC(+57)QHWSAQTPHTHNR) was 5, the “Spectra Observed” value (site 290, MG-HI, GNVAVTVSGHTC(+57)QHWSAQTPHTHNRTPENFPC(+57)K, MH+ 3809.751) was 12 and the “Spectra Observed” value (site 290, MG-HI, GNVAVTVSGHTC(+57)QHWSAQTPHTHNRTPENFPC(+57)K, MH+ 3827.75) was 4.
